Source: patent US11524966B1 (Valo Early Discovery, Inc., priority 2017, dated 2022)

Target: T1, USP25 (USP25-His6, Boston Biochem E-546) (Homo sapiens, UniProt Q9UHP3)
T1 construct: His6; purchased Boston Biochem E-546
T1 sequence (Q9UHP3 1-1055): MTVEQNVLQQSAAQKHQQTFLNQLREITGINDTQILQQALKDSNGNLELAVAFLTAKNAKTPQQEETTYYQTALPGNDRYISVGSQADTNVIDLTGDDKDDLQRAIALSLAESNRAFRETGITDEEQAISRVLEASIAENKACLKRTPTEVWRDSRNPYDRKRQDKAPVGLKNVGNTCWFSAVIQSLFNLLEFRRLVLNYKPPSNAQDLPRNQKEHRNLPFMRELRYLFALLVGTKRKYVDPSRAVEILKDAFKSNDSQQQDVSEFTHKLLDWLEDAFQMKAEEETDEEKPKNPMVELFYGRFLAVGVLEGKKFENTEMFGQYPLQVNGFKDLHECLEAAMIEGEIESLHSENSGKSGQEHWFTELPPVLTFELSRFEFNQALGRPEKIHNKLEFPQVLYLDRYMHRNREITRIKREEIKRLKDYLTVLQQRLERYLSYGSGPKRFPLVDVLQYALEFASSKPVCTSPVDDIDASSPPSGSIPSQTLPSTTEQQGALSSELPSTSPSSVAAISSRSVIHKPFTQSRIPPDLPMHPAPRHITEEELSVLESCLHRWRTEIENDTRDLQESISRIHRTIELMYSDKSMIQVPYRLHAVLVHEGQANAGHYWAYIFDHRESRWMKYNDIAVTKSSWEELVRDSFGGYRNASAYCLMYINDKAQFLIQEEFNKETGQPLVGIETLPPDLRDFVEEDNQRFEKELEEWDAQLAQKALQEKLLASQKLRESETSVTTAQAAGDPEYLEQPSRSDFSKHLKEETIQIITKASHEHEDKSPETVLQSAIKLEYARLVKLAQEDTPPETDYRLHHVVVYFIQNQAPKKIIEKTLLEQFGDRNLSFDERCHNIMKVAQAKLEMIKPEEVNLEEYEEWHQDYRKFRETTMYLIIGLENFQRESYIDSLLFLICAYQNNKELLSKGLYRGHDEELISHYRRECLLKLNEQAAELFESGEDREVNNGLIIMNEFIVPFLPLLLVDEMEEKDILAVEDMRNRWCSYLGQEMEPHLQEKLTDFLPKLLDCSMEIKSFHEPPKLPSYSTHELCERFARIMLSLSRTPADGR
Assay: Ubiquitin-Rhodamine 110 Assay for USP25 Activity, Example A-2
Format: biochemical
Conditions: Ubiquitin-Rhodamine 110 assay, Example A-2; read-out: USP25 A-2 IC50 range
Outline: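 Read-out: Rh110 fluorescence (ex 485, em 535 nm) after 45 min RT turnover of 25 nM Ub-Rh110 by 75 pM USP25-His6, quenched with 10 mM citric acid. Compounds at 25 μM–1.3 nM, preincubated 30 min with enzyme. IC50 from 4-parameter logistic fit.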

Row | Structure (SMILES) | IC50
1 | CO[C@]1(C)CN(c2ccc3c(c2)OC[C@H](NC(=O)c2sc4nc(C)ccc4c2N)C3)C[C@H]1N [Example 282, 3-amino-N-[(3R)-7-[(3R,4R)-4-amino-3-methoxy-3-methylpyrrolidin-1-yl]-3,4-dihydro-2H-1-benzopyran-3-yl]-6-methylthieno[2,3-b]pyridine-2-carboxamide] | 200 to 2000 nM
2 | CO[C@@H]1[C@@H](N)CN(c2ccc3c(c2)OC[C@H](NC(=O)c2sc4nc(C)ccc4c2N)C3)[C@H]1C [Example 283, 3-amino-N-[(3R)-7-[(2S,3R,4S)-4-amino-3-methoxy-2-methylpyrrolidin-1-yl]-3,4-dihydro-2H-1-benzopyran-3-yl]-6-methylthieno[2,3-b]pyridine-2-carboxamide] | 50 to 200 nM
3 | CO[C@H]1[C@H](N)CN(c2ccc3c(c2)OC[C@H](NC(=O)c2sc4nc(C)ccc4c2N)C3)[C@@H]1C [Example 284, 3-amino-N-[(3R)-7-[(2R,3S,4R)-4-amino-3-methoxy-2-methylpyrrolidin-1-yl]-3,4-dihydro-2H-1-benzopyran-3-yl]-6-methylthieno[2,3-b]pyridine-2-carboxamide] | 50 to 200 nM
4 | Cc1ccc2c(N)c(C(=O)N[C@H]3CCc4nc(N5C[C@H](OC6CCC6)[C@@H](N)C5)ccc4C3)sc2n1 [Example 285, 3-amino-N-[(6S)-2-[(3S,4S)-3-amino-4-cyclobutoxypyrrolidin-1-yl]-5,6,7,8-tetrahydroquinolin-6-yl]-6-methylthieno[2,3-b]pyridine-2-carboxamide] | > 2000 nM
5 | CO[C@H]1CN(c2ccc3c(n2)OC[C@H](NC(=O)c2sc4nc(C)cc(C)c4c2N)C3)C[C@@H]1N [Example 286, 3-amino-N-[(3R)-7-[(3S,4S)-3-amino-4-methoxypyrrolidin-1-yl]-2H,3H,4H-pyrano[2,3-b]pyridin-3-yl]-4,6-dimethylthieno[2,3-b]pyridine-2-carboxamide] | > 2000 nM
6 | Cc1ccc2c(N)c(C(=O)N[C@H]3COc4nc(N5C[C@H](OC(C)C)[C@@H](N)C5)ccc4C3)sc2n1 [Example 287, 3-amino-N-[(3R)-7-[(3S,4S)-3-amino-4-(propan-2-yloxy)pyrrolidin-1-yl]-2H,3H,4H-pyrano[2,3-b]pyridin-3-yl]-6-methylthieno[2,3-b]pyridine-2-carboxamide] | > 2000 nM
7 | Cc1ccc2c(N)c(C(=O)N[C@H]3COc4cc(N5CC[C@@H](N)C5)ccc4C3)sc2n1 [Example 288, 3-amino-N-[(3R)-7-[(3R)-3-aminopyrrolidin-1-yl]-3,4-dihydro-2H-1-benzopyran-3-yl]-6-methylthieno[2,3-b]pyridine-2-carboxamide] | 200 to 2000 nM
8 | CO[C@]12CNC[C@H]1CN(c1ccc3c(c1)OC[C@H](NC(=O)c1sc4nc(C)ccc4c1N)C3)C2 [Example 291, N-[(3R)-7-[(3aS,6aS)-3a-methoxy-octahydropyrrolo[3,4-c]pyrrol-2-yl]-3,4-dihydro-2H-1-benzopyran-3-yl]-3-amino-6-methylthieno[2,3-b]pyridine-2-carboxamide] | 200 to 2000 nM
9 | CO[C@@]12CNC[C@@H]1CN(c1ccc3c(c1)OC[C@H](NC(=O)c1sc4nc(C)ccc4c1N)C3)C2 [Example 292, N-[(3R)-7-[(3aR,6aR)-3a-methoxy-octahydropyrrolo[3,4-c]pyrrol-2-yl]-3,4-dihydro-2H-1-benzopyran-3-yl]-3-amino-6-methylthieno[2,3-b]pyridine-2-carboxamide] | 200 to 2000 nM
10 | CO[C@H]1CN(c2ccc3c(n2)CC[C@H](NC(=O)c2sc4nc(C)cc(C)c4c2N)C3)C[C@@H]1NC(C)=O [Example 293, 3-amino-N-[(6S)-2-[(3S,4S)-3-acetamido-4-methoxypyrrolidin-1-yl]-5,6,7,8-tetrahydroquinolin-6-yl]-4,6-dimethylthieno[2,3-b]pyridine-2-carboxamide] | > 2000 nM
11 | Cc1ccc2c(N)c(C(=O)N[C@H]3COc4cc(N5C[C@H](C(F)F)[C@@H](N)C5)ccc4C3)sc2n1 [Example 294, 3-amino-N-[(3R)-7-[(3R,4S)-3-amino-4-(difluoromethyl)pyrrolidin-1-yl]-3,4-dihydro-2H-1-benzopyran-3-yl]-6-methylthieno[2,3-b]pyridine-2-carboxamide] | 50 to 200 nM
12 | Cc1ccc2c(N)c(C(=O)N[C@H]3COc4cc(N5C[C@@H](N)[C@H](C(F)F)C5)ccc4C3)sc2n1 [Example 295, 3-amino-N-[(3R)-7-[(3S,4R)-3-amino-4-(difluoromethyl)pyrrolidin-1-yl]-3,4-dihydro-2H-1-benzopyran-3-yl]-6-methylthieno[2,3-b]pyridine-2-carboxamide] | 50 to 200 nM
13 | COC[C@@H]1CN(c2ccc3c(n2)CC[C@H](NC(=O)c2sc4nc(C)cc(C)c4c2N)C3)C[C@@H]1N [Example 296, 3-amino-N-[(6S)-2-[(3R,4R)-3-amino-4-(methoxymethyl)pyrrolidin-1-yl]-5,6,7,8-tetrahydroquinolin-6-yl]-4,6-dimethylthieno[2,3-b]pyridine-2-carboxamide-] | > 2000 nM
14 | COC[C@H]1CN(c2ccc3c(n2)CC[C@H](NC(=O)c2sc4nc(C)cc(C)c4c2N)C3)C[C@H]1N [Example 297, 3-amino-N-[(6S)-2-[(3S,4S)-3-amino-4-(methoxymethyl)pyrrolidin-1-yl]-5,6,7,8-tetrahydroquinolin-6-yl]-4,6-dimethylthieno[2,3-b]pyridine-2-carboxamide] | 200 to 2000 nM
15 | COC[C@@H]1CN(c2ccc3c(n2)CC[C@H](NC(=O)c2sc4nc(C)cnc4c2N)C3)C[C@@H]1N [Example 298, 7-amino-N-[(6S)-2-[(3R,4R)-3-amino-4-(methoxymethyl)pyrrolidin-1-yl]-5,6,7,8-tetrahydroquinolin-6-yl]-3-methylthieno[2,3-b]pyrazine-6-carboxamide] | > 2000 nM
16 | COC[C@H]1CN(c2ccc3c(n2)CC[C@H](NC(=O)c2sc4nc(C)cnc4c2N)C3)C[C@H]1N [Example 299, 7-amino-N-[(6S)-2-[(3S,4S)-3-amino-4-(methoxymethyl)pyrrolidin-1-yl]-5,6,7,8-tetrahydroquinolin-6-yl]-3-methylthieno[2,3-b]pyrazine-6-carboxamide] | 200 to 2000 nM
17 | COC[C@@H]1CN(c2nc3c(cc2F)C[C@@H](NC(=O)c2sc4nc(C)ccc4c2N)CC3)C[C@@H]1N [Example 300, 3-amino-N-[(6S)-2-[(3R,4R)-3-amino-4-(methoxymethyl)pyrrolidin-1-yl]-3-fluoro-5,6,7,8-tetrahydroquinolin-6-yl]-6-methylthieno[2,3-b]pyridine-2-carboxamide] | > 2000 nM
18 | COC[C@H]1CN(c2nc3c(cc2F)C[C@@H](NC(=O)c2sc4nc(C)ccc4c2N)CC3)C[C@H]1N [Example 301, 3-amino-N-[(6S)-2-[(3S,4S)-3-amino-4-(methoxymethyl)pyrrolidin-1-yl]-3-fluoro-5,6,7,8-tetrahydroquinolin-6-yl]-6-methylthieno[2,3-b]pyridine-2-carboxamide] | > 2000 nM
19 | Cc1ccc2c(N)c(C(=O)N[C@H]3COc4cc(N5C[C@@H]6CCN[C@@H]6C5)ccc4C3)sc2n1 [Example 304, N-[(3R)-7-[(3aS,6aS)-octahydropyrrolo[3,4-b]pyrrol-5-yl]-3,4-dihydro-2H-1-benzopyran-3-yl]-3-amino-6-methylthieno[2,3-b]pyridine-2-carboxamide] | 200 to 2000 nM
20 | Cc1ccc2c(N)c(C(=O)N[C@H]3COc4cc(N5C[C@H]6CCN[C@H]6C5)ccc4C3)sc2n1 [Example 305, N-[(3R)-7-[(3aR,6aR)-octahydropyrrolo[3,4-b]pyrrol-5-yl]-3,4-dihydro-2H-1-benzopyran-3-yl]-3-amino-6-methylthieno[2,3-b]pyridine-2-carboxamide] | 50 to 200 nM
21 | Cc1ccc2c(N)c(C(=O)N[C@H]3COc4cc(N5CCC6(CNC6)C5)ccc4C3)sc2n1 [Example 306, 3-amino-N-[(3R)-7-{2,6-diazaspiro[3.4]octan-6-yl}-3,4-dihydro-2H-1-benzopyran-3-yl]-6-methylthieno[2,3-b]pyridine-2-carboxamide] | 200 to 2000 nM
22 | Cc1ccc2c(N)c(C(=O)N[C@H]3COc4cc(N5C[C@H](N)[C@]6(CCCO6)C5)ccc4C3)sc2n1 [Example 307, 3-amino-N-[(3R)-7-[(5S,9S)-9-amino-1-oxa-7-azaspiro[4.4]nonan-7-yl]-3,4-dihydro-2H-1-benzopyran-3-yl]-6-methylthieno[2,3-b]pyridine-2-carboxamide] | 200 to 2000 nM
